The values that follow come from US6497862B2, “Composition for inhibiting body odor and uses thereof” (Kabushiki Kaisha Hayashibara, priority 2000, dated 2002).

Experiment [1] in a line: Formation of 2-nonenal from 9-hexadecanoic acid by heating, GC of HSG (Experiment 3). The note with it: 9-hexadecanoic acid + 100 mg test saccharide, heated at 105° C. for one hour; control 25.7. How it is done:
(§1) One hundred milligrams of oleic acid as a fatty acid, 500 mg of cellulose powder, and 1.25 ml of 0.12 M phosphate buffer (pH 6.0) were placed in a 20-ml glass vial. To the glass vial were added 100 mg of either of crystalline trehalose hydrate, crystalline maltitol anhydride, crystalline sorbitol anhydride, crystalline sucrose anhydride, crystalline maltose anhydride, and crystalline neotrehalose hydride as test saccharides (throughout Experiments 1 to 6, these saccharides are designated as “trehalose”, “maltitol”, sorbitol”, “sucrose”, “maltose”, and “neotrehalose”, respectively), followed by sealing the glass vial with a butyl rubber. As a control system, there provided a glass vial, with no a test saccharide, which differed from the test glass vial on this point. These glass vials were heated at 105° C. for one hour, cooled to ambient temperature, and kept in an aluminum heat-block (abbreviated as “heat block, hereinafter”), which had been preheated to 80° C. After 5-minutes standing, two milliliters of a head space gas (abbreviated as “HSG”, hereinafter) were collected from each glass vial with a syringe.
(§2) The collected HSG was analyzed for content of volatile aldehydes on gas chromatography (abbreviated as “GC” hereinafter) using “GAS CHROMATOGRAPH GC-14A”, as a GC apparatus; “CAPILLARY COLUMN SUPELCO-WAX”, having 0.25 mm in inner diameter, 60 m in length, and 0.25 μm in thickness, commercialized by Supelco Inc., Tokyo, Japan, as a column for analysis; helium gas at a flow rate of one ml/min as a carrier gas, under temperature conditions of 250° C. for injecting a sample and of a column thermostatic bath temperature being kept at 80° C. for five minutes and then increased up to 240° C. at a rate of 5° C./min. As standard specimens, propanal, butanal, and hexanal as volatile aldehydes were used. Based on the peak area obtained from gas chromatography for the standard specimens and HSG samples, the content of respective volatile aldehydes in HSG was calculated.
The content of 2-nonenal in HSG was measured by GC similarly as in Experiment 1 except that 9-hexadecanoic acid or palmitoleic acid was used as a fatty acid and 2-nonenal, a volatile aldehyde, was used as a standard substance. The level of body-odor-like smell, particularly with respect to KAREI-SHU, in each sample was evaluated by panel test in accordance with the method in Experiment 1.

The nature of experiment [2]: Panel test of body-odor-like smell (KAREI-SHU), linoleic acid heated (Experiment 2). Further details: key: +++: the same or higher level of odor; ++: slightly lower level of odor; +: clearly lower level of odor than that of the control system. The note with it: compared with control system. The source says: Upon the HSG samples, the level of a body-odor-like smell was examined on a panel test consisting of six professional panels; the panels directly smelled the samples from each glass vial and judged the level of the smells for each samples with test saccharides based on the following four ranks, i.e., the same or higher level of odor (+++), slightly lower level of odor (++), clearly lower level of odor (+), and odorless (−) as compared with the control system. Summing up the data from the panels, the samples tested were totally evaluated.
(§3) The content of 2-nonenal in HSG was measured by GC similarly as in Experiment 1 except that linoleic acid was used as a fatty acid and 2-nonenal, a volatile aldehyde, was used as a standard substance. The level of a body-odor-like smell, particularly with respect to KAREI-SHU, in each sample was evaluated by panel test in accordance with the method in Experiment 1.

A short description of experiment [3]: Formation of volatile aldehydes from oleic acid by heating, GC analysis of head space gas (Experiment 1). The note with it: oleic acid 100 mg + 100 mg test saccharide, heated at 105° C. for one hour; for Content in HSG, Hexanal: control 0.08; for Content in HSG, Butanal: control 1.04; for Content in HSG, Propanal: control 9.41. How it is done:
as §1, §2

Experiment [4] in a line: Formation of 2-nonenal from 9-hexadecanoic acid at the temperature of human body, GC of HSG (Experiment 6). The conditions noted are these: 37° C., 9,000 lux. On the procedure:
One hundred milligrams of 9-hexadecanoic acid as a fatty acid, 500 mg of a cellulose powder, and 1.25 ml of 0.12 M phosphate buffer (pH 6.0) were placed in a 20-ml glass vial. To the glass vial was added 100 mg of either of trehalose, maltitol and sucrose as a test saccharide, followed by sealing with a butyl rubber cap for use as a test system. As a control system, there provided a glass vial with no test saccharide that differed from the test systems only in this point. In both the test- and control-systems, they were respectively provided in doublet.
These glass vials were allowed to stand in a 37° C.-thermostatic-bath under the irradiation of 9,000 lux by a fluorescent lamp. At 3-days of standing, one of each pair of the vials containing the same composition, and 7-days of standing, the other vial of each resting pair of the vials were transferred to a heat block, which had been preheated to 80° C. and then kept therein for five minutes, followed by analyzing the content of 2-nonenal in HSG in each vial by GC similarly as in Experiment 2. After the collection of HSG, the smell from glass vials was evaluated by panel test in accordance with the method in Experiment 2.

Experiment [5] is described as follows: Formation of 2-nonenal from linoleic acid by heating, GC of HSG (Experiment 2). The conditions noted are these: linoleic acid + 100 mg test saccharide, heated at 105° C. for one hour; control 5.75. On the procedure: as §1, §2, §3
Where [6] appears, read: 3-days of standing, control 0.03.
The mark [7] stands for this setting: 7-days of standing, control 16.8.

With `OC[C@@H](O)[C@@H](O[C@H]1O[C@H](CO)[C@@H](O)[C@H](O)[C@H]1O)[C@H](O)[C@@H](O)CO` [Maltitol, maltitol], the “Content of 2-nonenal in HSG” value in experiment [1] was found to be 6.17 µg/mL; in experiment [4] (setting [6]) it was 0.00 µg/mL; in experiment [4] (setting [7]) it was 2.77 µg/mL; in experiment [5] it was 1.73 µg/mL. Further, the “Evaluation of panel test” value in experiment [2] is “+”. For the same compound, the “Content in HSG, Hexanal” value in experiment [3] worked out at 0.03 µg/mL. Moreover, the “Content in HSG, Butanal” value in experiment [3] amounted to 1.02 µg/mL. The “Content in HSG, Propanal” value in experiment [3] was found to be 4.09 µg/mL.

`OC[C@H]1O[C@@](CO)(O[C@H]2O[C@H](CO)[C@@H](O)[C@H](O)[C@H]2O)[C@@H](O)[C@@H]1O` [Sucrose, sucrose]: the “Content of 2-nonenal in HSG” value in experiment [1] was found to be 24.4 µg/mL; in experiment [4] (setting [6]) it was 0.26 µg/mL; in experiment [4] (setting [7]), 16.4 µg/mL; in experiment [5] it was 5.41 µg/mL. For the same compound, the “Evaluation of panel test” value in experiment [2] is recorded as “+++”. In experiment [3], the “Content in HSG, Hexanal” value amounted to 0.07 µg/mL. In experiment [3], the “Content in HSG, Butanal” value was 1.11 µg/mL. For the same compound, in experiment [3], the “Content in HSG, Propanal” value was determined as 9.98 µg/mL.

For the compound `OC[C@H]1O[C@H](O[C@H]2O[C@H](CO)[C@@H](O)[C@H](O)[C@H]2O)[C@H](O)[C@@H](O)[C@@H]1O` [Trehalose, trehalose], the “Content of 2-nonenal in HSG” value in experiment [1] amounted to 4.10 µg/mL; in experiment [4] (setting [6]) it was 0.00 µg/mL; in experiment [4] (setting [7]), 2.64 µg/mL; in experiment [5], 1.27 µg/mL. In addition, the “Evaluation of panel test” value in experiment [2] is “+”. In addition, the “Content in HSG, Hexanal” value in experiment [3] was 0.02 µg/mL. Further, the “Content in HSG, Butanal” value in experiment [3] came out at 0.19 µg/mL. Moreover, the “Content in HSG, Propanal” value in experiment [3] was found to be 3.47 µg/mL.
